Experiments:
HeLa-P4 cell = assay: Viability assay (cytotoxicity, MTT); assay type: cell-based; settings: 2 days, comparative compound table, read-out: Cytotoxicity IC50
Method: (§1) The cytotoxicity of compounds was evaluated using un-infected and infected HeLa-P4 cell and CEM leukemia cells. CEM cell were obtained from the […] (Rockville, MD). A serial dilution of drugs is done to evaluate the cytotoxicity concentration and is identified by CC50 (concentration of drug which induces 50% of cytotoxicity) The HeLa-P4 was cultured in the presence or absence of compounds for 2 days. After this time period, cells were cultivated with MTT for 3 hours, further the medium is removed. And the lysis buffer is incubated for 1 hour, followed by plate reading at 540 nm in a microplate reader.

[1] = Viability assay (cytotoxicity, MTT); assay type: cell-based; settings: human, HeLa-P4 cells, read-out: Cytoto -xicity IC50
Method: as §1

HBX2 HIV integrase [2] = biological target: T1, HBX2 HIV integrase (Human immunodeficiency virus type 1 group M subtype B, UniProt P04585); assay: Strand transfer assay; assay type: biochemical; settings: IN 200nM, substrate DNA 12.5 nM, up to 2 h at 37°C, read-out: Transfert IC50
Method: The pET-15b-IN plasmid contains the cDNA encoding the HBX2 HIV integrase. His-tagged integrase protein was overexpressed in Escherichia coli BL21 (DE3) and purified under native conditions. Briefly, at an OD of 0.8, fusion protein expression was induced in bacterial cultures by the addition of IPTG (1 mM). Cultures were incubated for 3 h at 37°C, after which cells were centrifuged. The cell pellet was resuspended in ice-cold buffer A [20 mM Tris-HCl (pH 8), 1 M NaCl, 4 mM β-mercaptoethanol, and 5 mM imidazole], treated with lysozyme for 1 h on ice, and sonicated. After centrifugation (30 min at 10 000 rpm), the supernatant was filtered (0.45 µm) and incubated for at least 2 h with Ni-NTA agarose beads (Pharmacia). The beads were washed twice with 10 volumes of buffer A, 10 volumes of buffer A with 50 mM imidazole, and 10 volumes of buffer A with 100 mM imidazole. His-tagged integrase was then eluted with buffer A supplemented with 50 µM ZnS04 and 1 M imidazole. […]
Processing, strand transfer reactions were performed using U5A-U5B-2, in buffer containing 20 mM Tris (pH 7.2), 50 mM NaCl, 10 mM DTT, 10mM MgCl2. […] Gels were analyzed using a STORM Molecular Dynamics phosphorimager and quantified with Image Quant™ 4.1 software.

[3] = system: wild type HIV-1 virus (NL 4.3 strains); assay: Antiviral activity assay on Hela P4 cells (beta-galactosidase, CPRG); assay type: cell-based; settings: Human immunodeficiency virus 1; HelaP4 cells, 48 hours incubation
Method: The antiviral activity is determined by infecting HelaP4 cells with a wild type HIV-1 virus (NL 4.3 strains at 3 ng) on cells in presence or absence of drugs. A serial dilution of drugs is done to evaluate the EC50. The effective concentration is the concentration of product at which virus replication is inhibited by 50 percent. After 48 hours incubation, the quantification is done by the evaluation of β-Galactosidase produced by the infected Hela P4 cells. The viral activity is evaluated by colorimetric assay, CPRG, followed by plate reading at 570 nm with a reference of 690 nm. The CPRG test is a colorimetric assay which allows to quantity the β-galactosidase produced by HIV-1 infected indicator cells (the β-Gal gene being under the control of the HIV-1 LTR).

HBX2 HIV integrase [4] = biological target: T1, HBX2 HIV integrase; assay: 3' LTR processing assay; assay type: biochemical; settings: 3' processing, IN 200nM, substrate DNA 12.5 nM, up to 2 h at 37°C
Method: For processing, strand transfer, 100 pmol of U5B, U5B-2, respectively, were radiolabeled using T4 polynucleotide kinase and 50 µCi of [γ-32P]ATP (3000 Ci/mmol). The T4 kinase was heat inactivated, and unincorporated nucleotides were removed using a Sephadex G-10 column (GE HealthCare). NaCl was added to a final concentration of 0.1 M, and complementary unlabeled strand U5A was added to either U5B or U5B-2. The mixture was heated to 90°C for 3 min, and the DNA was annealed by slow cooling.
Processing reaction was performed using U5A-U5B, in buffer containing 20 mM Tris (pH 7.2), 50 mM NaCl, 10 mM DTT, and 10mM MgCl2. […] The reactions were stopped by phenol/chloroform extraction, and DNA products were precipitated with ethanol. The products were separated in TE containing 7 M urea and electrophoresed on an 18% denaturing acrylamide/urea gel. Gels were analyzed using a STORM Molecular Dynamics phosphorimager and quantified with Image Quant™ 4.1 software.

| SMILES | CC50 (HeLa-P4 cell) | IC50 at 2 days [1] | IC50 (HBX2 HIV integrase [2]) | IC50 [3] | IC50 (HBX2 HIV integrase [4]) |
| --- | --- | --- | --- | --- | --- |
| COc1cc(/C=C/c2ccc3ccc(C(=O)O)c(O)c3n2)cc(O)c1O [FZ41, reference compound] | > 100 µM |  |  |  |  |
| CC(=O)c1ccc2ccc(/C=C/c3cc(O)c(O)cc3O)nc2c1O [SQE 95, (E)-1-(8-hydroxy-2-(2,4,5-trihydroxystyryl)quinolin-7-yl)ethanone] |  | 12.5 µM | 0.199 µM | 13.8 µM | 0.199 µM |

— patent EP2149557A1, “Styrylquinolines, their process of preparation and their therapeutic uses” (BioAlliance Pharma, priority 2008, dated 2010)
